Laboratory results reported in ChEMBL document CHEMBL1201862, “PubChem BioAssay data set” (2004).
Calls of active or inactive are those of the source.

Columns and labels:
[1] = target: T1, Short transient receptor potential channel 4 (Mus musculus, UniProt Q9QUQ5); assay: mouse TRPC4 channel activators, dose response, cell-based, HEK293 TRPC4/mu-opioid, Fluo-4 calcium (AID 434937); format: functional
T1 sequence (Q9QUQ5 whole entry): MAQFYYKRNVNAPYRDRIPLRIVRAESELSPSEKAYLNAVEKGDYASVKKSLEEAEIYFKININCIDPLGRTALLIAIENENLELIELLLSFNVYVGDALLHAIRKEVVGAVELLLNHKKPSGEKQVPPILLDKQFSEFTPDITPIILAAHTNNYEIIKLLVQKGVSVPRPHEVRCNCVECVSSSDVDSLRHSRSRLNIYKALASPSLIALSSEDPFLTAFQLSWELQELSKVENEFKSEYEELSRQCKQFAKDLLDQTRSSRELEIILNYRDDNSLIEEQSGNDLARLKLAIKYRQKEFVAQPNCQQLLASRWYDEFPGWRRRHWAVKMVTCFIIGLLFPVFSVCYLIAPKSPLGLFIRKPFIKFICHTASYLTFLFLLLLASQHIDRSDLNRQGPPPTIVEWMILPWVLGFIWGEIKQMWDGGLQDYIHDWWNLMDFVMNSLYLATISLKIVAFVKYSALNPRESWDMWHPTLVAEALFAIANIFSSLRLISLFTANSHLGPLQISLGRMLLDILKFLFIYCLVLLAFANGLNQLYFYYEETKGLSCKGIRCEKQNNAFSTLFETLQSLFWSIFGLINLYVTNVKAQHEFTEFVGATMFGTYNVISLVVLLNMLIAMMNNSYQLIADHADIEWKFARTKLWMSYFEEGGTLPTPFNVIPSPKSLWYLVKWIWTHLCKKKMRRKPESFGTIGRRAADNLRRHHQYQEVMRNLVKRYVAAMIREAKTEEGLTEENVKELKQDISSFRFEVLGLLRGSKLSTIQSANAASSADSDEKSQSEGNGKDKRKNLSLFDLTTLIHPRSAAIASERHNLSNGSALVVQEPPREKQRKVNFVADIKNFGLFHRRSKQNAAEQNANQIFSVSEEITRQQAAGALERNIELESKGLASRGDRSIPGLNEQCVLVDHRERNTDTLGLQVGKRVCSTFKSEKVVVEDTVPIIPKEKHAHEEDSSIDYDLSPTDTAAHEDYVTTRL

[2] = target: Eukaryotic translation initiation factor 4H (Homo sapiens, UniProt Q15056); assay: human eIF4H binding inhibitors, primary screen, translation initiation inhibitor project, biochemical, uHTS, fluorescence polarization (AID 2012)
[3] = target: Polyadenylate-binding protein 1 (Homo sapiens, UniProt P11940); assay: PABP poly(A) RNA binding inhibitors, primary screen, biochemical, fluorescence polarization, uHTS (AID 2014)
Polyadenylate-binding protein 1, sequence (P11940 whole entry): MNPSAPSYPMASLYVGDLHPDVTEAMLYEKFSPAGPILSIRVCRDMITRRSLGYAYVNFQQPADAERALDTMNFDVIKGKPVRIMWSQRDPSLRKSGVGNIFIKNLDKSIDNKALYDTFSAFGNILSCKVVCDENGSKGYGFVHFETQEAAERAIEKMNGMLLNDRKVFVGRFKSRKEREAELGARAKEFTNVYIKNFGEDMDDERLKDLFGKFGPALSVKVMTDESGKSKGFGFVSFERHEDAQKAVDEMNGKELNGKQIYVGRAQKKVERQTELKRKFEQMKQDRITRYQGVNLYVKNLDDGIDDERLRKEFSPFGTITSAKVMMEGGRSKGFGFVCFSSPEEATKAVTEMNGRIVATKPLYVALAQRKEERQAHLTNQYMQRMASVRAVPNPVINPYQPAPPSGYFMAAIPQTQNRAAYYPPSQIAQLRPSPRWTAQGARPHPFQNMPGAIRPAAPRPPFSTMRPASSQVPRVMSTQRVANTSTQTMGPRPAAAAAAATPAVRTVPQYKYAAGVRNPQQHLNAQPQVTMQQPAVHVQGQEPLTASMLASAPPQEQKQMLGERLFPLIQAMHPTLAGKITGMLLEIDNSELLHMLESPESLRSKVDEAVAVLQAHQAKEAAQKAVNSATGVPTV

Large T antigen = Large T antigen (Simian virus 40, UniProt P03070); format: functional, Betapolyomavirus macacae;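 also: Confirmatory-stage PubChem screen for compounds that inhibit SV40 T antigen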
Large T antigen, sequence (P03070 whole entry): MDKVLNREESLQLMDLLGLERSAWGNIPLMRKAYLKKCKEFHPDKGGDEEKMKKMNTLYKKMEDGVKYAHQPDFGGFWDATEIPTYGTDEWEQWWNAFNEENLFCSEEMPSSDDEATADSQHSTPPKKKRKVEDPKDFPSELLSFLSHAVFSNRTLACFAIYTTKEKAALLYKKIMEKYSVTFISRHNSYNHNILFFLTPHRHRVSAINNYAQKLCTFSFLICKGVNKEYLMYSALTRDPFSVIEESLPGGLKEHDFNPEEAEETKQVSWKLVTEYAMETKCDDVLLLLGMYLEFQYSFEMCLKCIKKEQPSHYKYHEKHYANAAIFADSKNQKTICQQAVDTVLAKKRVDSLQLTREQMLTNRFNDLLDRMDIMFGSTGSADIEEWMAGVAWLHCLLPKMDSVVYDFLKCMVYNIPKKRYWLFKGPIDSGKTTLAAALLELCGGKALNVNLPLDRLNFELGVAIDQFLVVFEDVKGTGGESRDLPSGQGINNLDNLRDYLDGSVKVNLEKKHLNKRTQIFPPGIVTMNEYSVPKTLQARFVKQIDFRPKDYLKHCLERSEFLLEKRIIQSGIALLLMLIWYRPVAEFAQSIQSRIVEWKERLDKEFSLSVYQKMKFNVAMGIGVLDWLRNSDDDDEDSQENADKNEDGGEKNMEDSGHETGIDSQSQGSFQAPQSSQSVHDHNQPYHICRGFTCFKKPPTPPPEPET

[4] = growth suppression of PTEN-null colon cells, dose response, cell-based, HCT116 PTEN knockout (AID 1047); format: functional;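 also: HCT116 colon tumor cells with PTEN knocked out; cells exposed to compound for 60 hours before readout; potency for loss of cell viability measured by luminescence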
[5] = growth suppression of beta-catenin-knockout colon cells, dose response, cell-based, HCT116, human colon tumor (AID 1045); format: functional;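 also: HCT116 colon tumor cells with beta catenin knocked out; cells exposed to compound for 60 hours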
Genome polyprotein = Genome polyprotein (dengue virus type 2, UniProt P29990); assay: Dengue-2 NS5 methyltransferase inhibitors, primary screen, biochemical, confirmation dose response (AID 588689); format: functional
Genome polyprotein, sequence (P29990 2492-3391 limits assumed): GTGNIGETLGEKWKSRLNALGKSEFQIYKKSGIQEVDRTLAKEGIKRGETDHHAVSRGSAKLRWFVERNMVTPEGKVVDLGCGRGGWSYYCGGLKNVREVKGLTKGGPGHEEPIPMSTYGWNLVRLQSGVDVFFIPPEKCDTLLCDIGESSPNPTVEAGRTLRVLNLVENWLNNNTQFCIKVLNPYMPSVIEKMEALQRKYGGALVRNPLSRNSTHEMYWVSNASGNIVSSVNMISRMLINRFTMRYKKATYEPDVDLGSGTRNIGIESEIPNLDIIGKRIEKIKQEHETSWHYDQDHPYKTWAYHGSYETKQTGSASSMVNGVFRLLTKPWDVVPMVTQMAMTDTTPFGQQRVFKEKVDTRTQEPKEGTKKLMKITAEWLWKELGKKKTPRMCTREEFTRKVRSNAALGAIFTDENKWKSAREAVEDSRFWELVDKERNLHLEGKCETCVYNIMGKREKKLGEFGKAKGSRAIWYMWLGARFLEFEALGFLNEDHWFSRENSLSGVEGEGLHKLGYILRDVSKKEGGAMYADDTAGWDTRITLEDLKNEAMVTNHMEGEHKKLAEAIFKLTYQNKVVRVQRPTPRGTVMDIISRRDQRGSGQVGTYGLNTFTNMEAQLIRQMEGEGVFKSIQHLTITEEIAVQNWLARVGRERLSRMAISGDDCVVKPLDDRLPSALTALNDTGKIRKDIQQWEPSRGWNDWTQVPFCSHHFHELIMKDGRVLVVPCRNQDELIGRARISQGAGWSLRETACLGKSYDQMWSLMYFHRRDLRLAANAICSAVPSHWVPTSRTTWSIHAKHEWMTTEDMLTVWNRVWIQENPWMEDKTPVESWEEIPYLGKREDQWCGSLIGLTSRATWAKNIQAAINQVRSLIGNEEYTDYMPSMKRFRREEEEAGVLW

[6] = Shn3 3'UTR reporter inhibitors, dose response, cell-based, Clone20 osteoblasts, firefly luciferase, cherry-picked (AID 624132); format: functional;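 also: firefly luciferase luminescence from reporter carrying the Shn3 3'UTR in osteoblasts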
[7] = control 3'UTR Renilla luciferase suppression, dose response, counter-screen for Shn3 inhibitor project, cell-based, Clone20-Shn3RL, cherry-picked (AID 624133); format: functional
Coagulation factor XII = target: T2, Coagulation factor XII (Homo sapiens, UniProt P00748); format: functional;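 also: activated factor XIIa alpha cleaving a fluorogenic AMC peptide substrate; inhibitor potency from loss of enzyme activity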
T2 sequence (P00748 whole entry): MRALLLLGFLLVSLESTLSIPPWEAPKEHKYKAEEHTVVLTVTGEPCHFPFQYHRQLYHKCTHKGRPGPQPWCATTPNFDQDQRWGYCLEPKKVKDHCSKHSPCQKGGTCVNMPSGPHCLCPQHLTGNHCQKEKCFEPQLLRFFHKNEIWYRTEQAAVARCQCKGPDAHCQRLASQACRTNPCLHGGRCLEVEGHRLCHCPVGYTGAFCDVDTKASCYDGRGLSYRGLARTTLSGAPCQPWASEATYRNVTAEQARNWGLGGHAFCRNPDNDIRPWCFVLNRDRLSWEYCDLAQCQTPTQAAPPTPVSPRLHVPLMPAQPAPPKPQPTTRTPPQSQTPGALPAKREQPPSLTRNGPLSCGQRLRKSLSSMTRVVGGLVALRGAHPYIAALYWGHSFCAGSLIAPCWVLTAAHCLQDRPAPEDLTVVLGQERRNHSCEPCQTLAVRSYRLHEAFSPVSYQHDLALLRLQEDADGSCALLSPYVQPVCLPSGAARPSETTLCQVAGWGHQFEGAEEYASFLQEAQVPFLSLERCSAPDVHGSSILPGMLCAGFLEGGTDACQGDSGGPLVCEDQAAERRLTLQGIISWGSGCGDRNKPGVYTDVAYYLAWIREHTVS

[8] = target: DNA dC->dU-editing enzyme APOBEC-3A (Homo sapiens, UniProt P31941); assay: Dose Response confirmation of small molecule APOBEC3A DNA Deaminase Inhibitors via a fluorescence-based single-stranded DNA deaminase assay. [Related pubchem assays (depositor defined):AID493011, AID493024]; format: functional
DNA dC->dU-editing enzyme APOBEC-3A, sequence (P31941 whole entry): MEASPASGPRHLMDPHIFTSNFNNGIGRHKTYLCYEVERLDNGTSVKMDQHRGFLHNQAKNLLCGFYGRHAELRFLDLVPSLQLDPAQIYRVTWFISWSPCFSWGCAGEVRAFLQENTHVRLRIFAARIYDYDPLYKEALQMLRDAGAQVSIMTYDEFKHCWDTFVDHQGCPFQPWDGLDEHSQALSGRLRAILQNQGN

[9] = target: DNA dC->dU-editing enzyme APOBEC-3G (Homo sapiens, UniProt Q9HC16); format: functional;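 also: Dose-response counterscreen measuring inhibition of APOBEC3G DNA deaminase activity, run while confirming APOBEC3A inhibitors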
DNA dC->dU-editing enzyme APOBEC-3G, sequence (Q9HC16 whole entry): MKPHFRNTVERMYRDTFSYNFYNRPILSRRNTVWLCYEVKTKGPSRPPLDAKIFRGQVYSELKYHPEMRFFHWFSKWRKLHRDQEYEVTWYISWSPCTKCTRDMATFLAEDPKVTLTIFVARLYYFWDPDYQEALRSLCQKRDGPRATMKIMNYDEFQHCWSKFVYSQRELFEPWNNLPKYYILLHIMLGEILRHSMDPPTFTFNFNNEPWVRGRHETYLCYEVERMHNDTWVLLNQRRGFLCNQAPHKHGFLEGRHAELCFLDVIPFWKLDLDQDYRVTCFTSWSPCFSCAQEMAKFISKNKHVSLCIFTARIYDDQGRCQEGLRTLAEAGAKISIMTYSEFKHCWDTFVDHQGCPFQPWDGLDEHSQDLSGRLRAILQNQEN

[10] = target: Luciferin 4-monooxygenase (Photinus pyralis, UniProt P08659); assay: firefly luciferase enzyme inhibitors, dose response, biochemical, luminescence (AID 1891)
Luciferin 4-monooxygenase, sequence (P08659 whole entry): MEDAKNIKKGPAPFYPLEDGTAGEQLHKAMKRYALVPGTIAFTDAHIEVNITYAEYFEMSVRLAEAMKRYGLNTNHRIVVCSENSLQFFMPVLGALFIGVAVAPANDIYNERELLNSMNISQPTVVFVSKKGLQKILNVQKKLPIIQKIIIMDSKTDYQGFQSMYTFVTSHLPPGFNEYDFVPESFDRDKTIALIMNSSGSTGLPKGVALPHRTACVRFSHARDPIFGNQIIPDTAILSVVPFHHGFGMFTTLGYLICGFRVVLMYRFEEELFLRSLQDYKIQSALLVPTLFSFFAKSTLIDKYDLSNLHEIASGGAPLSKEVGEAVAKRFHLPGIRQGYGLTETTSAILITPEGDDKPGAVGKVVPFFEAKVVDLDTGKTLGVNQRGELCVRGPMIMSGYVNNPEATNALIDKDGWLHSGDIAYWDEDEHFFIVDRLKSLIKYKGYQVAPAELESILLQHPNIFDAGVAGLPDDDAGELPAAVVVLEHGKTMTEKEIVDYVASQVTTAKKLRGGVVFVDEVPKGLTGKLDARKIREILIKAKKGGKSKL

[11] = Luminescence Cell-Based Dose Confirmation HTS to Identify Inhibitors of Platelet Dense Granule Release. [Related pubchem assays: 1663 (Primary HTS), 1678 (Summary of Project)]; format: functional
cells = format: functional
[12] = microbe, parasite or virus in culture; format: functional; conditions: Mycobacterium tuberculosis
[13] = target: T3, Replicative DNA helicase DnaB (Mycobacterium tuberculosis, UniProt P9WMR3); assay: DnaB intein splicing inhibitors, dose response, biochemical, cell-free fluorescence (AID 449749); format: functional
T3 sequence (P9WMR3 whole entry): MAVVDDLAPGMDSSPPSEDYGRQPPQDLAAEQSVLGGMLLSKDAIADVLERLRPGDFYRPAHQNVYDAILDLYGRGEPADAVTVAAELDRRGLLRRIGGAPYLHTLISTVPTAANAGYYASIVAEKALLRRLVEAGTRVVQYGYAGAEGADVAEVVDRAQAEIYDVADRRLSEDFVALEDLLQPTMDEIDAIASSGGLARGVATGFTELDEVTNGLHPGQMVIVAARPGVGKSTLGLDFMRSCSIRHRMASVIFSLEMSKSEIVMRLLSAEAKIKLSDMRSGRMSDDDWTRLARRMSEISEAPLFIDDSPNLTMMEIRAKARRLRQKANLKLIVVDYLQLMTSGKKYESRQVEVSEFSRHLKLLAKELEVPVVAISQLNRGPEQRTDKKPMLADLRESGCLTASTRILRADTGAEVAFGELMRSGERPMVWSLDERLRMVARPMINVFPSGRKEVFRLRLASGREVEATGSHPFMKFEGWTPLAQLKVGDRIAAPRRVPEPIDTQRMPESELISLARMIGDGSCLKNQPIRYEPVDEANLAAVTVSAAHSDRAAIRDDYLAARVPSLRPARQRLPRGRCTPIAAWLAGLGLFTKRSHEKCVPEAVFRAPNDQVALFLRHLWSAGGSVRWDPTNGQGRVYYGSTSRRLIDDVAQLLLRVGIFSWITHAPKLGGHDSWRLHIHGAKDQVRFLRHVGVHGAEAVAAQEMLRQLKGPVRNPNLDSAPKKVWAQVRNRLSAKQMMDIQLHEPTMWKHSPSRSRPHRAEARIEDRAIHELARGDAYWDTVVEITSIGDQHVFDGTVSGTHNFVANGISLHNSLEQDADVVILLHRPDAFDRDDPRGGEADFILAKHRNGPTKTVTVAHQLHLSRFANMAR

Protein RecA = target: T4, Protein RecA (Mycobacterium tuberculosis, UniProt P9WHJ3); assay: Fluorescence Cell-Free Homogeneous Dose Retest to Identify Inhibitors of RecA-Intein Splicing Activity. [Related pubchem assays (depositor defined):AID2097, AID2223, AID489010, AID492950]; format: functional
T4 sequence (P9WHJ3 whole entry): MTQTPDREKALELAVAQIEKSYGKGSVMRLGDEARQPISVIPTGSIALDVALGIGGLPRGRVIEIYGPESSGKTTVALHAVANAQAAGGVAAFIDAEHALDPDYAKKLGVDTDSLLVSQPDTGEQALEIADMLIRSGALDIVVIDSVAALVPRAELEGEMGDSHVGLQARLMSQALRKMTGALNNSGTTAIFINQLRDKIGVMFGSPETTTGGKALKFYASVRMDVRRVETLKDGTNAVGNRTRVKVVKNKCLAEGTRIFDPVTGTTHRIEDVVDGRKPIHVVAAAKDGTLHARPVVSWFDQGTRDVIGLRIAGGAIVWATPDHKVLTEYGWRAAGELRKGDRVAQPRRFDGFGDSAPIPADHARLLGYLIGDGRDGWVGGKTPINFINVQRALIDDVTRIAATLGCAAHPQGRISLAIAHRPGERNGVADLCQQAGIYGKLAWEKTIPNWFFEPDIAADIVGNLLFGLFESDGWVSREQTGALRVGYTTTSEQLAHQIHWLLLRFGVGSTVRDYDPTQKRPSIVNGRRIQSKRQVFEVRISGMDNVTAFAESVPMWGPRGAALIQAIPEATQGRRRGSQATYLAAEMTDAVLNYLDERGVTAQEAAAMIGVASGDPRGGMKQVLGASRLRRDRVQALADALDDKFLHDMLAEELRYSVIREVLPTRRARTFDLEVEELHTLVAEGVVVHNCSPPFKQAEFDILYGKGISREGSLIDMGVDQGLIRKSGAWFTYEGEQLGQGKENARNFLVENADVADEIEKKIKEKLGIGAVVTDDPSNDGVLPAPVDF

Vero = assay: cells; format: functional; conditions: Chlorocebus sabaeus
[14] = target: T1, Short transient receptor potential channel 4; assay: mouse TRPC4 channel inhibitors, dose response, cell-based, HEK293 TRPC4/mu-opioid, Fluo-4 calcium (AID 434942); format: functional;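 also: potency of inhibitors blocking the TRPC4 calcium response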
[15] = target: T5, Carboxy-terminal domain RNA polymerase II polypeptide A small phosphatase 1 (Homo sapiens, UniProt Q9GZU7); assay: inhibitors of CTDSP1, concentration-response testing, biochemical assay, absorbance-based, actives from ultra-high-throughput screening (AID 540297); format: functional
T5 sequence (Q9GZU7 whole entry): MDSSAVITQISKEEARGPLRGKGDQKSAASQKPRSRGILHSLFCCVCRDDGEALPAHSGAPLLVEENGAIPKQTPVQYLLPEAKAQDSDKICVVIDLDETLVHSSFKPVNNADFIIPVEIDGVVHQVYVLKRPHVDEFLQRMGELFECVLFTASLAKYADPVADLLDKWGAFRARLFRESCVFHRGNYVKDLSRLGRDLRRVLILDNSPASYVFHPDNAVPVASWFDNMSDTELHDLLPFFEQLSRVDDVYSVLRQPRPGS

SMILES: CCOC(=O)C1(CCOc2ccccc2)CCN(Cc2cc(OC)ccc2OC)CC1
- EC50 [1]: 3.76 µM (active)

SMILES: CCN1C(NCCc2cccnc2)=N[C@@H](c2ccccc2)C(C(=O)OC)=C1C
- IC50 [2]: > 100 µM (inactive)
- IC50 [3]: 12 µM (active)

SMILES: O=C1ON=C(c2ccccc2)/C1=C/c1ccc(-c2ccccc2[N+](=O)[O-])o1
- IC50 (Large T antigen): 52.8 µM (active)
- EC50 [4]: 42.5 µM (active)
- EC50 [5]: 21.4 µM (active)
- IC50 (Genome polyprotein): 11.6 µM (active)
- AC50 [6]: 7.21 µM (active)
- AC50 [7]: 23.2 µM (active)

SMILES: CC/C(=N\NC(=S)NC(C)C)c1ccc(OC(F)F)cc1
- IC50 (Coagulation factor XII): > 50 µM (inactive)

SMILES: Cc1c(C)n(CCC#N)c2ccccc12
- IC50 (Coagulation factor XII): > 50 µM (inactive)

SMILES: O=C(NCc1ccco1)c1ccc2c(c1)CCO2
- IC50 (Coagulation factor XII): > 50 µM (inactive)

SMILES: COc1cc(O)ccc1C(=O)CCc1ccc(O)cc1
- IC50 (Large T antigen): 13.3 µM (active)

SMILES: CC(Oc1ccc(F)cc1)C(=O)Nc1cc(S(=O)(=O)N2CCOCC2)ccc1N1CCN(C)CC1 (centres undefined)
- IC50 [8]: 4.91 µM (active)
- IC50 [9]: 8.29 µM (active)

SMILES: CCc1cc2c(=O)c(-c3nc4ccccc4n3C)coc2c(CN2CCCCC2C)c1O (centres undefined)
- IC50 [2]: 15.1 µM (active)
- IC50 [3]: 57.8 µM (active)

SMILES: COc1cc(/C=C2/C(=O)NN(c3ccc(Cl)cc3)C2=O)ccc1OC(=O)c1ccco1
- IC50 (Large T antigen): 21.6 µM (active)
- EC50 [10]: > 112 µM (not active)
- EC50 [11]: > 112 µM (not active)
- IC50 (cells): 16.6 µM (active)

SMILES: C[n+]1cccc(/C=N/NC(=O)CC23CC4CC(CC(C4)C2)C3)c1
- IC50 [2]: > 100 µM (inactive)
- IC50 [3]: 5.14 µM (active)
- IC50 [8]: 3.04 µM (active)
- IC50 [9]: 3.28 µM (active)

SMILES: N#CCn1c(CCl)nc2ccccc2c1=O
- IC50 (Large T antigen): 15.1 µM (active)
- CC50 [12]: 30.8 µM (active)
- AC50 [13]: 80.6 µM (active)
- EC50 (Protein RecA): 7.2 µM (active)
- CC50 (Vero): 14.9 µM (active)

SMILES: CC(=O)c1c(COC(=O)c2cccnc2)nc2ccccc2[n+]1[O-]
- IC50 [8]: 1.48 µM (active)
- IC50 [9]: 2.09 µM (active)

SMILES: CC(C)C[C@H](NC(=O)C1CC(=O)N(c2ccc3c(c2)OCO3)C1)C(=O)NCc1ccco1 (some centres undefined)
- IC50 [2]: 20 µM (active)
- IC50 [3]: > 100 µM (inactive)

SMILES: Fc1ccccc1Sc1ccccc1CNC1=NCCN1
- IC50 [8]: 1.35 µM (active)
- EC50 [14]: 0.944 µM (active)
- IC50 [9]: 2.77 µM (active)
- IC50 [15]: 4.12 µM (active)

SMILES: Cc1ccc2c(C)c(C(=O)Nc3nnc(C)s3)oc2c1
- IC50 (Coagulation factor XII): > 50 µM (inactive)
